Assay results reported in US20170190705A1, “Compositions and Methods for Inhibiting BMP” (THE BRIGHAM AND WOMAN'S HOSPITAL, INC., priority 2014, published 2017).
Like-named read-outs stand apart in the source and are kept apart here.

Legend:
Format in all cases: biochemical
MAP4K2 = target: T1, MAP4K2 (Homo sapiens, UniProt Q12851); experiment: Kinome profiling MAP4K2; settings: for inhibition at 0.1 µM: 100 nM
T1 sequence (Q12851 1-820): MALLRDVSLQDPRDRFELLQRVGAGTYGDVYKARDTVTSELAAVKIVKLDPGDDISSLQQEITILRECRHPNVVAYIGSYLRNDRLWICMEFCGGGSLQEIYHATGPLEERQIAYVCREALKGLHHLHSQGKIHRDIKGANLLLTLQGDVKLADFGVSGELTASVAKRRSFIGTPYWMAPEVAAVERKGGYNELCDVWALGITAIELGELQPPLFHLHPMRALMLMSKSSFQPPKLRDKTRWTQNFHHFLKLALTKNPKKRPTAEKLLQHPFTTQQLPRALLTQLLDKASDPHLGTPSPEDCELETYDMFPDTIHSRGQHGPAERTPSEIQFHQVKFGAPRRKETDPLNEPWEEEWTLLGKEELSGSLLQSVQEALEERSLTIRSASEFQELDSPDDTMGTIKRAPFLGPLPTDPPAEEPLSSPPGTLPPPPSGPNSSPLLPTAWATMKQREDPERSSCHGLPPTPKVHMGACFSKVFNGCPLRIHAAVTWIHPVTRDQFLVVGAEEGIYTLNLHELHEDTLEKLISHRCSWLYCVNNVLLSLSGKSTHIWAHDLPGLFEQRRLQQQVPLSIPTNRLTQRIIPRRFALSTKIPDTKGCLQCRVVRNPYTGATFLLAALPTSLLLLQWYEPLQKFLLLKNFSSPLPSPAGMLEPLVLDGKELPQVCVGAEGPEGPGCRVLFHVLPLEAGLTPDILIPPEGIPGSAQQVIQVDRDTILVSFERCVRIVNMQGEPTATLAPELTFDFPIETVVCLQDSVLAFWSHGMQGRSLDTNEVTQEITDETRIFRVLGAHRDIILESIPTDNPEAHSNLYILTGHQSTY
Method: (§1) . The kinome-wide selectivity was determined following the methods previously reported by Mohedas et al., ACS Chem Biol 2013, 8, 1291-1302 and Sanvitale et al., PLoS One 2013, 8, e62721.

ABL1 = ABL1 (Homo sapiens, UniProt P00519); experiment: Kinome profiling ABL1; settings: for inhibition at 0.1 µM: 100 nM
Method: as §1

CDK5/p35 = CDK5/p35 (Homo sapiens, UniProt Q00535); experiment: Kinome profiling CDK5/p35; settings: read-out: Inhibitory activity CDK5/p35; for inhibition at 0.1 µM: 100 nM
Method: as §1

INSR = INSR (Homo sapiens, UniProt P06213); experiment: Kinome profiling INSR; settings: read-out: Inhibitory activity INSR; for inhibition at 0.1 µM: 100 nM
Method: as §1

NEK1 = target: T2, NEK1 (Homo sapiens, UniProt Q96PY6); experiment: Kinome profiling NEK1; settings: read-out: Inhibitory activity NEK1; for inhibition at 0.1 µM: 100 nM
T2 sequence (Q96PY6 1-1258): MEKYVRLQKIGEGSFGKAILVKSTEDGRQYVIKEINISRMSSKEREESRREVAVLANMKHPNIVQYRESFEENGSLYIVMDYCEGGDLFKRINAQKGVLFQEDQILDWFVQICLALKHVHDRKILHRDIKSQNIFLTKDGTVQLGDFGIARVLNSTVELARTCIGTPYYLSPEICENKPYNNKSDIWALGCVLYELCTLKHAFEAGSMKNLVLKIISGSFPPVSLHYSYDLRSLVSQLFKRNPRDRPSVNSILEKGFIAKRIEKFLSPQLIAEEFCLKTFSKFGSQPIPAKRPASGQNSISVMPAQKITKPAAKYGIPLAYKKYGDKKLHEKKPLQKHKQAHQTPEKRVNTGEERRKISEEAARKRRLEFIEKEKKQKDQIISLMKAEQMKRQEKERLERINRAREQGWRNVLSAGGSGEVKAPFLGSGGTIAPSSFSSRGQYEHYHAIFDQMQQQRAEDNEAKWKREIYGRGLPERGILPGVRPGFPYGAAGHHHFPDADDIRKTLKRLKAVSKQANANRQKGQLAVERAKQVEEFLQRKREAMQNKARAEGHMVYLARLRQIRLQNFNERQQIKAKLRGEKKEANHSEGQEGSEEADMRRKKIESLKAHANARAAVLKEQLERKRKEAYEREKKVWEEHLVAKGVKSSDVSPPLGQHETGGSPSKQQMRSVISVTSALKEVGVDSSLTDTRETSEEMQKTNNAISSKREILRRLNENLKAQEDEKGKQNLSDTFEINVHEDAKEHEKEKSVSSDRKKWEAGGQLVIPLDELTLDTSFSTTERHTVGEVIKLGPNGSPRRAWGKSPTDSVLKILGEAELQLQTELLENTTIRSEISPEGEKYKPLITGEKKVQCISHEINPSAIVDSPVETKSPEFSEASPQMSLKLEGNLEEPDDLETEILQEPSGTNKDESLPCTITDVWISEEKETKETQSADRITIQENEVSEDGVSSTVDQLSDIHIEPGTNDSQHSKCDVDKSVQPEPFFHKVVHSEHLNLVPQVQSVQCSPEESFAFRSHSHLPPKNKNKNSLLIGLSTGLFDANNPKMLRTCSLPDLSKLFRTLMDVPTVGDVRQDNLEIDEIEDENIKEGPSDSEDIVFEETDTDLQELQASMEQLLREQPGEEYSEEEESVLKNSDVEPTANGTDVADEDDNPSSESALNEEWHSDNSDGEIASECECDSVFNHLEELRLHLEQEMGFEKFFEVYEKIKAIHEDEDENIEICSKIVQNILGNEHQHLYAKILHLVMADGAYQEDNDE
Method: as §1

YES = YES (Homo sapiens, UniProt P07947); experiment: Kinome profiling YES; settings: read-out: Inhibitory activity YES; for inhibition at 0.1 µM: 100 nM
Method: as §1

EGFR = EGFR (Homo sapiens, UniProt P00533); experiment: Kinome profiling EGFR; settings: read-out: Inhibitory activity EGFR; for inhibition at 0.1 µM: 100 nM
Method: as §1

[1] = Table 4, read-out: Inhibitory Activity MAP4K2
[2] = read-out: Inhibitory activity MAP4K2
[3] = Table 4, read-out: Inhibitory Activity ABL1
[4] = read-out: Inhibitory activity ABL1

Chain of CDK5/p35 (Q00535 whole entry): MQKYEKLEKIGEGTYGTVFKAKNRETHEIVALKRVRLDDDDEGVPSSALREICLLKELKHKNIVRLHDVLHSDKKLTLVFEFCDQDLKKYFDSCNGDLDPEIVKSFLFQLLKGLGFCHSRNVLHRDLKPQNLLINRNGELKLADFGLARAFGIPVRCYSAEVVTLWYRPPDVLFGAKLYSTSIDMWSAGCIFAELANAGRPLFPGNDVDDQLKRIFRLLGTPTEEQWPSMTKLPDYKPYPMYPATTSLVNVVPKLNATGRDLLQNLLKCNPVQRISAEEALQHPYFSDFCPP
Chain of CDK5/p35 (Q15078 whole entry partner): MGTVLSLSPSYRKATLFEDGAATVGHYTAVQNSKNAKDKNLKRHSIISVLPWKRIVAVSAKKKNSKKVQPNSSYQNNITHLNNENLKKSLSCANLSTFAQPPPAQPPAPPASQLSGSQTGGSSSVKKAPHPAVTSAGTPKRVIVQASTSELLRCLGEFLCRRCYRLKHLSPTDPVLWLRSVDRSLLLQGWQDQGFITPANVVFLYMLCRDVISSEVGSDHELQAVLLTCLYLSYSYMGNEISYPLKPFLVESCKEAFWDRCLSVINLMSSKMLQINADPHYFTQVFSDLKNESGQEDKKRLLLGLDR
Chain of EGFR (P00533 25-1210): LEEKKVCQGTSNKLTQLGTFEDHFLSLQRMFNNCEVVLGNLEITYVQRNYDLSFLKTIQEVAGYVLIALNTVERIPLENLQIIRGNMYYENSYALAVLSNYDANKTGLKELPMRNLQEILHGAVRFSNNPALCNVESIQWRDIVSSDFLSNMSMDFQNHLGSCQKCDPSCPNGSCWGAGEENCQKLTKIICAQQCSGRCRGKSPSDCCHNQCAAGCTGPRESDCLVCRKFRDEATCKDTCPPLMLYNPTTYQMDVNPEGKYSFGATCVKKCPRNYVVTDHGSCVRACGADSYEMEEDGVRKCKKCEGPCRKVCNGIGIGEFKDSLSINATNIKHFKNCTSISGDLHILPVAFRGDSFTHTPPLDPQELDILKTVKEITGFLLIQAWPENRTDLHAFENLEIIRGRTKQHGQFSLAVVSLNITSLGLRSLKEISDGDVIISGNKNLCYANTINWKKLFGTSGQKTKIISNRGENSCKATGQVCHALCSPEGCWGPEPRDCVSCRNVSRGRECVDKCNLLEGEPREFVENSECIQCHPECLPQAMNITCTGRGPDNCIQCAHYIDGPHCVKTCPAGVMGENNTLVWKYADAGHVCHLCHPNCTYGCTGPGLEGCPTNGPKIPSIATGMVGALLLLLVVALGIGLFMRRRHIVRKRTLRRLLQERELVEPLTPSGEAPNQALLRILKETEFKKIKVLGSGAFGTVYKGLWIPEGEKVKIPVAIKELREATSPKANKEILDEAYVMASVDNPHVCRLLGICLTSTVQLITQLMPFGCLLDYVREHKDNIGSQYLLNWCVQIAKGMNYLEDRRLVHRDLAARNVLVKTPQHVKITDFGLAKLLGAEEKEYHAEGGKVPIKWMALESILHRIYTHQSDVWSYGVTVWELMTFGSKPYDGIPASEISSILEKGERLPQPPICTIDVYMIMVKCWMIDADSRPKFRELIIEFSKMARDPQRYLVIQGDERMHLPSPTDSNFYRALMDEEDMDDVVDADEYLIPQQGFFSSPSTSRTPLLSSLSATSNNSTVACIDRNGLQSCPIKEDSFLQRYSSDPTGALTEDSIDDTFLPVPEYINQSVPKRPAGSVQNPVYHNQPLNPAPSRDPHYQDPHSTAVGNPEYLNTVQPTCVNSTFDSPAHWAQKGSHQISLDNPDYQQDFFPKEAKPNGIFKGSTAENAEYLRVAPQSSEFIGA
Chain of YES (P07947 whole entry): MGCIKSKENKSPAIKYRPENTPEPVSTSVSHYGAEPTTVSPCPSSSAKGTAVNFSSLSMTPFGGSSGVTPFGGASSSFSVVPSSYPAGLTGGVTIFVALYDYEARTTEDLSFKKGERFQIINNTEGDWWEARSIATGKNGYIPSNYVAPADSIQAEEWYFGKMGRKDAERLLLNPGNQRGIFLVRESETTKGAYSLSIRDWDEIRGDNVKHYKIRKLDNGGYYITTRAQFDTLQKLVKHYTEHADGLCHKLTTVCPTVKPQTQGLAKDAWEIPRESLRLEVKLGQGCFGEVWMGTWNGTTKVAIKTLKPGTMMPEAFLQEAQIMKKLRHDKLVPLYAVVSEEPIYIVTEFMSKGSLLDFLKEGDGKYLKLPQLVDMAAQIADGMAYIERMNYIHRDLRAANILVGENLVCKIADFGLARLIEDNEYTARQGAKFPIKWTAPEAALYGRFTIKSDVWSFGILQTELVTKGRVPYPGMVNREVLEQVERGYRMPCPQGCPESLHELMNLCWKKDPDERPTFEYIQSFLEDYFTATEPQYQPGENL
Chain of INSR (P06213 28-1382): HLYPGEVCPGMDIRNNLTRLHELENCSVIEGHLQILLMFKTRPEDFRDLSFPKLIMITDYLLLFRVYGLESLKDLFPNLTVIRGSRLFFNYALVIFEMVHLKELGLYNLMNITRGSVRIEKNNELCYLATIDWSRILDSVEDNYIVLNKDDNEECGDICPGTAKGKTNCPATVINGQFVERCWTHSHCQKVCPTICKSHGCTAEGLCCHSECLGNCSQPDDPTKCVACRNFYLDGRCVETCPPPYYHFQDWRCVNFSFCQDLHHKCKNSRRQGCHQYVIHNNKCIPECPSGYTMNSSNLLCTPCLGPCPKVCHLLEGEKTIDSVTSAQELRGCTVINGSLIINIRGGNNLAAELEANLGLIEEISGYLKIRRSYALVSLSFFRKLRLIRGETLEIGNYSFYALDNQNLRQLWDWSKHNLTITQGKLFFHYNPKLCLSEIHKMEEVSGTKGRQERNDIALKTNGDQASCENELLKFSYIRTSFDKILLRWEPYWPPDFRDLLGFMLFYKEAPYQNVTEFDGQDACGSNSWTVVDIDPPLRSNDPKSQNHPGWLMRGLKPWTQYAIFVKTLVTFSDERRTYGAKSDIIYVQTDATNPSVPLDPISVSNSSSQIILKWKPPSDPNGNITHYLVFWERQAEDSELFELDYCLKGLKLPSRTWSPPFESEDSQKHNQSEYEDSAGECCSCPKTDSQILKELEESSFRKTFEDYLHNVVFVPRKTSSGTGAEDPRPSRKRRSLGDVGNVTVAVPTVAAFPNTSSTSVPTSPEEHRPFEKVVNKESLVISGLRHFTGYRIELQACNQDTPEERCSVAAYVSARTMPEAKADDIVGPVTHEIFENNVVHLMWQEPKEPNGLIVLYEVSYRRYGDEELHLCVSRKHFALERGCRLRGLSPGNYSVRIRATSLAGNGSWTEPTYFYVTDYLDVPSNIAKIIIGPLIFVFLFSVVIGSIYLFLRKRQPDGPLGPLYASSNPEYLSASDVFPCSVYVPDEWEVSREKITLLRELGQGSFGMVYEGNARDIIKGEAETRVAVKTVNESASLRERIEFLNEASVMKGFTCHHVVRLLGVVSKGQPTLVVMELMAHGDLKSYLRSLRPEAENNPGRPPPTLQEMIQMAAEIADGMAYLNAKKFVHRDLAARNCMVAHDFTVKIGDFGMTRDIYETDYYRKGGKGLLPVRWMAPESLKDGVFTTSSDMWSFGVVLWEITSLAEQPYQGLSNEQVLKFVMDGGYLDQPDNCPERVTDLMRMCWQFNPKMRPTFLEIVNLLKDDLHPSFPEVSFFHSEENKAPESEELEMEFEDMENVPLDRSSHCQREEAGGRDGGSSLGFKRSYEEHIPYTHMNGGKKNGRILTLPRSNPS
Chain of ABL1 (P00519 whole entry): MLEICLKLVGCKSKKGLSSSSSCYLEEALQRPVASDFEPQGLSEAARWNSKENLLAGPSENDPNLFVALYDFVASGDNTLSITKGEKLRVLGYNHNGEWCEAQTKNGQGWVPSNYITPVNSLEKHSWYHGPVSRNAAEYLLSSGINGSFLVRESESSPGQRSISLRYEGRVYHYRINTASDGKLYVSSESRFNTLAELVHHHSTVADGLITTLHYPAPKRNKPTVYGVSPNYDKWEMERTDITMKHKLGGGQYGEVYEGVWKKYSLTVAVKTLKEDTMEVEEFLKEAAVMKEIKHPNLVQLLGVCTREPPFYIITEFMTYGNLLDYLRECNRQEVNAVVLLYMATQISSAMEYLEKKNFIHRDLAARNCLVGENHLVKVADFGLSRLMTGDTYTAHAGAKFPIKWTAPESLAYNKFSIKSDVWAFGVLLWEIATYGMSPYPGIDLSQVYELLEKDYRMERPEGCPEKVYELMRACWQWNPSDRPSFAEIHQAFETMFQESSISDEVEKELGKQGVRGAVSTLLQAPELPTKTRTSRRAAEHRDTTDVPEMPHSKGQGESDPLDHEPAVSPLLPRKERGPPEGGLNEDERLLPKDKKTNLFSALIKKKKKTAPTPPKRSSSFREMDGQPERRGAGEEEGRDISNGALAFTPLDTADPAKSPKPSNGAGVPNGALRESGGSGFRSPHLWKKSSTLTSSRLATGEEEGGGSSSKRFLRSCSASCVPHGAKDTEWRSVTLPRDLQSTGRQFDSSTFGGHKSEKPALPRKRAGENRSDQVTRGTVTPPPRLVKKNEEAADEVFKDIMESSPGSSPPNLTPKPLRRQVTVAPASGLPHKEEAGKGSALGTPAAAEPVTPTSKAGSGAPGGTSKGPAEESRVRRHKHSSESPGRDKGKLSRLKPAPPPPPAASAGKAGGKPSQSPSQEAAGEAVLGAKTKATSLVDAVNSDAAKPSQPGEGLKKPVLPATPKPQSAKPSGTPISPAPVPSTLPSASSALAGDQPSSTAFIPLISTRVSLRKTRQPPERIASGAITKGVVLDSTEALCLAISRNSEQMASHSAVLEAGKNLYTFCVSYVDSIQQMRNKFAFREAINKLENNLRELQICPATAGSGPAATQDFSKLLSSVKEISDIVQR

| SMILES | inhibition at 0.1 µM (MAP4K2; [1]) | inhibition at 0.1 µM (MAP4K2; [2]) | inhibition at 1 µM (MAP4K2; [1]) | inhibition at 1 µM (MAP4K2; [2]) | inhibition at 0.1 µM (ABL1; [3]) | inhibition at 0.1 µM (ABL1; [4]) | inhibition at 1 µM (ABL1; [3]) | inhibition at 1 µM (ABL1; [4]) | inhibition at 0.1 µM (CDK5/p35) | inhibition at 1 µM (CDK5/p35) | inhibition at 0.1 µM (INSR) | inhibition at 1 µM (INSR) | inhibition at 0.1 µM (NEK1) | inhibition at 1 µM (NEK1) | inhibition at 0.1 µM (YES) | inhibition at 1 µM (YES) | inhibition at 0.1 µM (EGFR) | inhibition at 1 µM (EGFR) |
| --- | --- | --- | --- | --- | --- | --- | --- | --- | --- | --- | --- | --- | --- | --- | --- | --- | --- | --- |
| COc1cc(-c2cc(-c3ccc(N4CCNCC4)cc3)cnc2C)cc(OC)c1OC [Compound 10, 1-(4-(6-methyl-5-(3,4,5-trimethoxyphenyl)pyridin-3-yl)phenyl)piperazine] | 16% | 16% | 61% | 61% | 56% | 56% | 93% | 93% | 2% | 2% | 3% | 3% | 2% | 1% | 11% | 47% | 3% | 16% |
| COc1cc(-c2cc(-c3ccc(N4CCNCC4)cc3)cnc2N)cc(OC)c1OC [Compound 15, 5-(4-(piperazin-1-yl)phenyl)-3-(3,4,5-trimethoxyphenyl)pyridin-2-amine] | – | 36% | – | 77% | – | 77% | – | 84% | 0% | 0% | 4% | 8% | 1% | 1% | 41% | 82% | 8% | 37% |
